Literature values as cited in patent publication US20100247649A1, “PHARMACEUTICAL FORMULATIONS COMPRISING TELMISARTAN AND HYDROCHLOROTHIAZIDE” (DR. REDDY'S LABORATORIES LTD., priority 2007, published 2010).

Row | Structure (SMILES) | Stability in alkaline conditions (alkaline conditions) | Aqueous solubility in the physiological pH range of the gastrointestinal tract (between pH 1 and 7) | Solubility in hydrochloric acid (hydrochloric acid) | Solubility in the pH range of 3 to 9 (pH range of 3 to 9) | Solubility in strong acids (strong acids (except hydrochloric acid)) | Solubility in strong bases (strong bases) | Solubility in water (water)
1 | NS(=O)(=O)c1cc2c(cc1Cl)NCNS2(=O)=O [Hydrochlorothiazide, 6-chloro-3,4-dihydro-2H-1,2,4-benzothiadiazine-7-sulfonamide 1,1-dioxide] | degrades | – | – | – | – | – | –
2 | CCCc1nc2c(C)cc(-c3nc4ccccc4n3C)cc2n1Cc1ccc(-c2ccccc2C(=O)O)cc1 [Telmisartan, 4′-[(1,4′-dimethyl-2′-propyl[2,6′-bi-1H-benzimidazol]-1′-yl)methyl]-[1,1′-biphenyl]-2-carboxylic acid] | – | very poor | insoluble | practically insoluble | sparingly soluble | soluble | practically insoluble
